Assay results from article PMC9612005 (Pharmaceutics, 2022).
Several values for one entry are separate records, joined by “and”; a condition that tells them apart may be missing. Equal entries are not always repeated. Where two headings read alike, the source gives them in different places.

Key:
[1] = molecular target: T1, cone CNG channels (CNGA3:CNGB3) (Homo sapiens, UniProt Q16281+Q9NQW8); test: Patch-clamp on inside-out patches, heterotetrameric cone CNG channels expressed in Xenopus laevis oocytes; type: cell-based
T1 construct: expressed in transfected cells; host or cells: Xenopus laevis oocytes (cRNA injection, pGEMHE vector); inside-out patches
T1 sequence (Q16281 1-694): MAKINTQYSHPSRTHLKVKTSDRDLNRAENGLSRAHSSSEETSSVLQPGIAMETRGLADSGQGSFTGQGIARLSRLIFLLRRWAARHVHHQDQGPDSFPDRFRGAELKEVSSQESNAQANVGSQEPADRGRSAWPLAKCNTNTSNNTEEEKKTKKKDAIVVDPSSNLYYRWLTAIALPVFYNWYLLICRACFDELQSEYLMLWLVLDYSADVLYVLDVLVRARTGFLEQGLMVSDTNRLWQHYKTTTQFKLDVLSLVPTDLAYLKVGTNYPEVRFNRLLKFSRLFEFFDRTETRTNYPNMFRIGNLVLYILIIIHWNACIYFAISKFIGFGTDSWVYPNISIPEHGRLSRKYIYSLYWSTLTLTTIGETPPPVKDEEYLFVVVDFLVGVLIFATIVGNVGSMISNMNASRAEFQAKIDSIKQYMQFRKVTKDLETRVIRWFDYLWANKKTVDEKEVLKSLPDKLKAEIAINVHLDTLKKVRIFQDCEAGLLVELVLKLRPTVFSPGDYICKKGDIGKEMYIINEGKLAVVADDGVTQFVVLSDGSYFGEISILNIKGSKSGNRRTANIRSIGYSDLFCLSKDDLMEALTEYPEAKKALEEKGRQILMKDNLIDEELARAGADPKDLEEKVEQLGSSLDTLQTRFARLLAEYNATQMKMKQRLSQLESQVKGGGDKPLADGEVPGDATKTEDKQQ
T1 sequence (Q9NQW8 1-809): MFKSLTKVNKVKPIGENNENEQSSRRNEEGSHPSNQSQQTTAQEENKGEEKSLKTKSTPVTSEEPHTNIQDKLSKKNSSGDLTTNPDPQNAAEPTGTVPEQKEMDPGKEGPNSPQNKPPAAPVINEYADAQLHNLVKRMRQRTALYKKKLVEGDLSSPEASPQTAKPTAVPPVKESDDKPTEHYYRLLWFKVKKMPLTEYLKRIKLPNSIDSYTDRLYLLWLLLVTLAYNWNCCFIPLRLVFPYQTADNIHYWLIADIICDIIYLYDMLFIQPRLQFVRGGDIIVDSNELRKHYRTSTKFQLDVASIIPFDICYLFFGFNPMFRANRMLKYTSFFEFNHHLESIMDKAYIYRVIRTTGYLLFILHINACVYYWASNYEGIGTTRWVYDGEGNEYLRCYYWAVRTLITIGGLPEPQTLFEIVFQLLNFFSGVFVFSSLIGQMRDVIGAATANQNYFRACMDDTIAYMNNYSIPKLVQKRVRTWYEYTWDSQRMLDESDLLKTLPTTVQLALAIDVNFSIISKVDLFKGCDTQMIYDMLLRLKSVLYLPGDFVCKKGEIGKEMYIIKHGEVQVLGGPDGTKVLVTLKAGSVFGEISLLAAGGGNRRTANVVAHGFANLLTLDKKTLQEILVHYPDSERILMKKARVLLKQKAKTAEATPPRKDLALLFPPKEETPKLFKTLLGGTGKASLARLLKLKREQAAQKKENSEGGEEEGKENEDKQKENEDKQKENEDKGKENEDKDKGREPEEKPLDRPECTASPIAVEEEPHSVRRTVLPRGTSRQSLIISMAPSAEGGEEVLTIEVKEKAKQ
Source text: (§1) The patch pipettes were pulled from borosilicate glass tubing (outer diameter 2.0 mm, inner diameter 1.0 mm; Hilgenberg GmbH, Malsfeld, Germany). The initial resistance of the solution-filled pipettes was 0.6–1.4 MΩ. […] For studying the activation and deactivation kinetics of CNG channels, we performed fast jumps between different ligand concentrations by means of a double-barreled θ-glass pipette mounted on a piezo-driven device, which was controlled by the computer. For measuring the time courses, the recording rate was 20 kHz.
The activation and deactivation time courses were determined by fitting the respective current traces with single exponentials:(3) I(t)=A∗exp[−t/τ] where A is the amplitude, t the time, and τ the time constant for either activation or deactivation.

[2] = molecular target: T2, rod CNG channels (CNGA1:CNGB1a) (Bos taurus, UniProt Q00194+Q28181); test: Patch-clamp on inside-out patches, heterotetrameric rod CNG channels expressed in Xenopus laevis oocytes; type: cell-based, bovine
T2 construct: expressed in transfected cells; host or cells: Xenopus laevis oocytes (cRNA injection, pGEMHE vector); inside-out patches
T2 sequence (Q00194 whole entry): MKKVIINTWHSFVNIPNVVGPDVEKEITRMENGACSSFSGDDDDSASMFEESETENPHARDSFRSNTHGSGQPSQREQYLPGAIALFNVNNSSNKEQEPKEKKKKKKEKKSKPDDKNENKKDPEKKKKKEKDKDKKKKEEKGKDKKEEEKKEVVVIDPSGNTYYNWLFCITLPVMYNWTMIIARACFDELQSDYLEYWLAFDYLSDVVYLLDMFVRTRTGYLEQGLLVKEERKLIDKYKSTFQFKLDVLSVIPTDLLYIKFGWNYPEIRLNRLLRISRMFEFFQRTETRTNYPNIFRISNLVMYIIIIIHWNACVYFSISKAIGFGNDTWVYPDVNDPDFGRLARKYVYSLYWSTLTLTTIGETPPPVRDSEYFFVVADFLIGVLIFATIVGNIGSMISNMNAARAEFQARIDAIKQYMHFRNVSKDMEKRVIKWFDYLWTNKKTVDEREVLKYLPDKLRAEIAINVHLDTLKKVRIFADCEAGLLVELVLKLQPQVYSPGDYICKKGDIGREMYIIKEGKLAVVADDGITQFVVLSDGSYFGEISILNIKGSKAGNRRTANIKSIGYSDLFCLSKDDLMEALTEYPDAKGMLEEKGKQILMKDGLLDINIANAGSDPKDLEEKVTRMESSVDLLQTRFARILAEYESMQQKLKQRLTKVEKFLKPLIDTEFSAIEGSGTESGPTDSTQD
T2 sequence (Q28181 whole entry): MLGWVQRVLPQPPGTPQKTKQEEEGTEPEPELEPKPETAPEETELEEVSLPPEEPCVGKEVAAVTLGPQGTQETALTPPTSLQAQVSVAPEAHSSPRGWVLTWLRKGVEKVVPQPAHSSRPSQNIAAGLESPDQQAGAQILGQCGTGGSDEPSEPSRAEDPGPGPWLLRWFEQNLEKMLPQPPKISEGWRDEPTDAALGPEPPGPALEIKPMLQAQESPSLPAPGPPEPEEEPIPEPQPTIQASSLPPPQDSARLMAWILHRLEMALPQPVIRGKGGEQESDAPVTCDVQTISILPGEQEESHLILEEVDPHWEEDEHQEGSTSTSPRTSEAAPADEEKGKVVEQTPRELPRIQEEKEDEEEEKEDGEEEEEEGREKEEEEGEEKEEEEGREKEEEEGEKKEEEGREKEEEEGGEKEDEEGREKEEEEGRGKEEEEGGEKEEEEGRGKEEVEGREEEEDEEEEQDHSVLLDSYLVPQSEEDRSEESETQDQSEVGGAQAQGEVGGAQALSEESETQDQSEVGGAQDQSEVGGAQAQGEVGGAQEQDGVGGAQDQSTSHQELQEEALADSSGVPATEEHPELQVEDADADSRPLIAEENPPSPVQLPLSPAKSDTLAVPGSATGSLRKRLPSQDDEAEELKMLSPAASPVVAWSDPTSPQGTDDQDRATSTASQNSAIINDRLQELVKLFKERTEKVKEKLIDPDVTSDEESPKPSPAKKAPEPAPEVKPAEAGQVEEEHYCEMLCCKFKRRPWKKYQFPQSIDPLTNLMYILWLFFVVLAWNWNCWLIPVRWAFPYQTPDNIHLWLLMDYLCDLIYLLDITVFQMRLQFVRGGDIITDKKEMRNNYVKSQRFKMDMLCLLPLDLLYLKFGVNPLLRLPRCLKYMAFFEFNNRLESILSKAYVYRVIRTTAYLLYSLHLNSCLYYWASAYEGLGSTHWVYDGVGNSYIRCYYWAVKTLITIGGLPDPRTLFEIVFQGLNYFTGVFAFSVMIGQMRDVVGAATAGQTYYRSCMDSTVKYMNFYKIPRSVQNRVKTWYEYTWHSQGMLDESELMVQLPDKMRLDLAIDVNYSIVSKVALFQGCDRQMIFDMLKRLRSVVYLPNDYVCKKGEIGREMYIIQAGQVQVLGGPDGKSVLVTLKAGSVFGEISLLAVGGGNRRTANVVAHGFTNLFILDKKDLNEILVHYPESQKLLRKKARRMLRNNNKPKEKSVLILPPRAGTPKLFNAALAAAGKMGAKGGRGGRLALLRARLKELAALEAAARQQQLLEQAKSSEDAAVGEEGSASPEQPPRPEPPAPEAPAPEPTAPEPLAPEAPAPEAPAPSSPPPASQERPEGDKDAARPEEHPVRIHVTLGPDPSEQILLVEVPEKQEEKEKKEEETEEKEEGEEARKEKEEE
Source text: as §1, with “kHz. […]” for “kHz.”

[3] = cGMP + 50 µM of the cGMP analogue

cone CNG-channel activation ([1]; 0.1 µM) | potency compared to cGMP, cone channel ([1]; higher potency than cGMP) | H (Hill coefficient), cone CNG channels ([1]; ligand alone) | EC50 ([1]; ligand alone, concentration-activation relationship, Hill fit, read-out: EC50, cone CNG channels) [nM] | effect on rod channels ([2]; 0.1 µM) | potency compared to cGMP, rod channel ([2]; higher potency than cGMP) | H (Hill coefficient), rod CNG channels ([2]; ligand alone) | EC50 ([2]; ligand alone, concentration-activation relationship, Hill fit, read-out: EC50, rod CNG channels) [nM] | Structure (SMILES) | EC50 [1] [nM] | decrease in the apparent affinity of cone CNG channels ([1]; 50 µM analogue) | H (Hill coefficient), cone CNG channels [1, 3] | EC50 [2] [nM] | decrease in the apparent affinity of rod CNG channels (increase of cGMP EC50) ([2]; 50 µM analogue) | H (Hill coefficient), rod CNG channels [2, 3]
~ 90% | ~ 138 times | 1.74 | 80 | almost no effect on rod channels | ~ 63 times | 2.2 | 630 | Nc1nc2c(nc(Sc3ccc(Cl)cc3)n2[C@@H]2O[C@@H]3COP(=O)(O)O[C@H]3[C@H]2O)c(=O)[nH]1 [8-pCPT-cGMP] |  |  |  |  |  | 
 |  |  |  |  |  |  |  | O=c1c2nc(Br)n([C@@H]3O[C@@H]4CO[P@@](=O)(S)O[C@H]4[C@H]3O)c2nc2[nH]c(-c3ccccc3)cn12 [Rp-8-Br-PET-cGMPS] | 4400 | ~ 3.2 fold | 1.97 | 450 | ~ 4.9 fold and ~ 5 fold | 1.90
